Source: US8546575B2, “NIP thiazole derivatives as inhibitors of 11-beta-hydroxysteroid dehydroge-nase-1” (Merck Patent GmbH, priority 2008, dated 2013)

Tests used:
human 11-β-HSD-1 = target: T1, human 11-β-HSD-1 (Homo sapiens, UniProt P28845); assay: Inhibition of 11-β-HSD-1 enzyme assay (HTRF Cortisol), human recombinant enzyme; type: biochemical; conditions: for IC50: human recombinant enzyme from E. coli, cortisone/NADPH 200 nM/200 μM
T1 construct: made in house; host or cells: E. coli
Method: (§1) Human recombinant 11-beta-hydroxysteroid dehydrogenase type 1 (11-β-HSD-1) enzyme was expressed in E. coli. Rat and mice liver microsome fractions were purchased from TEBU.
(§2) The 11-β-HSD-1 enzyme assay was carried out in 96 well microtiter plates in a total volume of 100 μl containing 30 mM Hepes buffer, pH 7.4 with 1 mM EDTA, substrate mixture cortisone/NADPH (200 nM/200 μM), G-6-P (1 mM) and inhibitors in serial dilutions. Reactions were initiated by addition of 10 μl 11-β-HSD-1 (3 μg) from E. coli, either as microsome fractions from rat and mice liver (2.5 μg). Following mixing, the plates were shaken for 150 minutes at 37° C. The reactions were terminated with 10 μl Acid-18beta Glycyrrhetinic stop solution. Determinations of Cortisol levels in 11-β-HSD-1 preparations were monitored by HTRF (HTRF Cortisol assay from Cis bio international).
(§3) Activity is expressed in % of control or concentration to inhibit 50% of the enzyme activity (IC50) (table 6).

mouse 11-β-HSD-1 = target: T2, mouse 11-β-HSD-1 (Mus musculus, UniProt P50172); assay: Inhibition of 11-β-HSD-1 enzyme assay (HTRF Cortisol), mice liver microsome fractions; type: biochemical; conditions: for remaining activity at 1 µM: read-out: Inhibition of mouse 11-β-HSD-1 % of control at 1 μM
T2 construct: either as microsome fractions from rat and mice liver (2.5 μg); tissue TEBU; host or cells: mouse liver microsome fractions
Method: as §1, §2, §3

humans = conditions: cited from earlier work
normal patients = conditions: cited from earlier work

T1 sequence (P28845 whole entry): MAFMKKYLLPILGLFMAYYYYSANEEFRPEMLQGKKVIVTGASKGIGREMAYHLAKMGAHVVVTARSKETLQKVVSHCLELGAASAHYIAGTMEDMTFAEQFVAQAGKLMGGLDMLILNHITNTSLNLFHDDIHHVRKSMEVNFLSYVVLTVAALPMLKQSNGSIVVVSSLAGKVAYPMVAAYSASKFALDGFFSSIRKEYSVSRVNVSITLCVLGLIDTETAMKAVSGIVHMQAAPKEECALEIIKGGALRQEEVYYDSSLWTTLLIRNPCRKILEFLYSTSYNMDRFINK
T2 sequence (P50172 whole entry): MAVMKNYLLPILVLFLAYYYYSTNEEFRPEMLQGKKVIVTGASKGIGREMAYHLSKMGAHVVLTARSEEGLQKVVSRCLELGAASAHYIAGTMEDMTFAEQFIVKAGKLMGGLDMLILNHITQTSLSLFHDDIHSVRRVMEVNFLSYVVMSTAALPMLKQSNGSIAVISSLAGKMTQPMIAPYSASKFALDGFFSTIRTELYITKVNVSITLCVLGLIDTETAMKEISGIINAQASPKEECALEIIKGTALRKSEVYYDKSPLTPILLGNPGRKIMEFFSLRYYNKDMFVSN

IC50 (human 11-β-HSD-1)	IC50 (mouse 11-β-HSD-1)	Structure (SMILES)	other results
53 nM	500 nM	COc1ccc(CNC(=O)N2CCC(c3nc(C(=O)N4CCCC5CCCCC54)cs3)CC2)cc1 (stereo not shown) [Compound 3.22, 4-[4-(Octahydro-quinoline-1-carbonyl)-thiazol-2-yl]-piperidine-1-carboxylic acid 4-methoxy-benzylamide]	–
340 nM	59 nM	CCCCCNC(=O)N1CCC(c2nc(C(=O)N3CCCC4CCCCC43)cs2)CC1 (stereo not shown) [Compound 3.7, 4-[4-(Octahydro-quinoline-1-carbonyl)-thiazol-2-yl]-piperidine-1-carboxylic acid pentylamide]	–
200 nM	340 nM	O=C(C1CCCCC1)N1CCC(c2nc(C(=O)N3CCCC4CCCCC43)cs2)CC1 (stereo not shown) [Compound 2.17, [2-(1-Cyclohexanecarbonyl-piperidin-4-yl)-thiazol-4-yl]-(octahydro-quinolin-1-yl)-methanone]	–
93 nM	210 nM	CCCCS(=O)(=O)N1CCC(c2nc(C(=O)N3CCCC4CCCCC43)cs2)CC1 (stereo not shown) [Compound 4.2, {2-[1-(Butane-1-sulfonyl)-piperidin-4-yl]-thiazol-4-yl}-(octahydro-quinolin-1-yl)-methanone]	–
420 nM	630 nM	O=C(CCC1CCCC1)N1CCC(c2nc(C(=O)N(C3CCCCC3)C3CC3)cs2)CC1 [Compound 2.7, 2-[1-(3-Cyclopentyl-propionyl)-piperidin-4-yl]-thiazole-4-carboxylic acid cyclohexyl-cyclopropyl-amide]	–
720 nM	–	O=C(c1csc(C2CCN(S(=O)(=O)c3cccs3)CC2)n1)N(C1CCCCC1)C1CC1 [Compound 4.11, 2-[1-(Thiophene-2-sulfonyl)-piperidin-4-yl]-thiazole-4-carboxylic acid cyclohexyl-cyclopropyl-amide]	–
280 nM	1000 nM	COc1ccc(S(=O)(=O)N2CCC(c3nc(C(=O)N(C4CCCCC4)C4CC4)cs3)CC2)cc1 [Compound 4.20, 2-[1-(4-Methoxy-benzenesulfonyl)-piperidin-4-yl]-thiazole-4-carboxylic acid cyclohexyl-cyclopropyl-amide]	–
–	–	O=C(c1csc(C2CCNCC2)n1)N1CCCC2CCCCC21 (stereo not shown) [Compound 1.2, (Octahydro-quinolin-1-yl)-(2-piperidin-4-yl-thiazol-4-yl)-methanone]	remaining activity at 1 µM (human 11-β-HSD-1; at 1 μM, human recombinant enzyme, read-out: Inhibition of human 11-β-HSD-1 % of control at 1 μM): 27%
1000 nM	–	O=C(c1csc(C2CCN(S(=O)(=O)CCc3ccncc3)CC2)n1)N(C1CCCCC1)C1CC1 [Compound 4.18, 2-[1-(2-Pyridin-4-yl-ethanesulfonyl)-piperidin-4-yl]-thiazole-4-carboxylic acid cyclohexyl-cyclopropyl-amide]	remaining activity at 1 µM (mouse 11-β-HSD-1): 49%
32 nM	330 nM	O=C(c1csc(C2CCN(S(=O)(=O)C(F)(F)F)CC2)n1)N1CCCC2CCCCC21 (stereo not shown) [Compound 4.1, (Octahydro-quinolin-1-yl)-[2-(1-trifluoromethanesulfonyl-piperidin-4-yl)-thiazol-4-yl]-methanone]	–
270 nM	470 nM	CCC(C)NC(=O)N1CCC(c2nc(C(=O)N3CCCC4CCCCC43)cs2)CC1 (stereo not shown) [Compound 3.1, 4-[4-(Octahydro-quinoline-1-carbonyl)-thiazol-2-yl]-piperidine-1-carboxylic acid sec-butylamide]	–
–	–	CC1(C)[C@@H](OC(=O)CCC(=O)O)CC[C@]2(C)[C@H]3C(=O)C=C4[C@@H]5C[C@@](C)(C(=O)O)CC[C@]5(C)CC[C@@]4(C)[C@]3(C)CC[C@@H]12 [carbenoxolone]	hepatic insulin sensitivity (humans): improved hepatic insulin sensitivity; reduction of the intraocular pressure (normal patients): 20%
92 nM	–	CC(C)(C)CC(=O)N1CCC(c2nc(C(=O)N3CCCC4CCCCC43)cs2)CC1 (stereo not shown) [Compound 2.1, 3,3-Dimethyl-1-{4-[4-(octahydro-quinoline-1-carbonyl)-thiazol-2-yl]-piperidin-1-yl}-butan-1-one]	remaining activity at 1 µM (mouse 11-β-HSD-1): 51%
130 nM	490 nM	O=C(C1CCCC1)N1CCC(c2nc(C(=O)N3CCCC4CCCCC43)cs2)CC1 (stereo not shown) [Compound 2.18, [2-(1-Cyclopentanecarbonyl-piperidin-4-yl)-thiazol-4-yl]-(octahydro-quinolin-1-yl)-methanone]	–
1200 nM	290 nM	O=C(c1csc(C2CCNCC2)n1)N(C1CCCCC1)C1CC1 [Compound 1.1, 2-Piperidin-4-yl-thiazole-4-carboxylic acid cyclohexyl-cyclopropyl-amide]	–
